From article PMC12566046, “Arylpiperazinyl-Benzocycloheptapyrrole-Carboxamides Endowed with Dual Anticancer and Antiviral Activities” (Molecules, 2025)

Key:
[1] = system: SK-MEL-2 (melanoma cell line); experiment: NCI-60 five-dose assay; details: SK-MEL-2
[2] = system: HCT-15 (colon cancer cell line); experiment: NCI-60 five-dose assay; format: cell-based, human; details: five doses (10^−4–10^−8 M), read-out: Growth inhibition 50 (GI50)
[3] = system: LOX IMVI (melanoma cell line); experiment: NCI-60 five-dose assay
[4] = system: UACC-257 (melanoma cell line); experiment: NCI-60 five-dose assay; details: UACC-257
[5] = system: MALME-3M (melanoma cell line); experiment: NCI-60 five-dose assay; details: MALME-3M
[6] = system: SW-620 (colon cancer cell line); experiment: NCI-60 five-dose assay; format: cell-based, human; details: SW-620; five doses (10^−4–10^−8 M); read-out: Growth inhibition 50 (GI50)
[7] = system: MDA-MB-468 (breast cancer); experiment: NCI-60 five-dose assay; format: cell-based, human; details: five-dose screen
[8] = system: COLO 205 (colon cancer cell line); experiment: NCI-60 five-dose assay; format: cell-based, human; details: five doses (10^−4–10^−8 M), read-out: Growth inhibition 50 (GI50)
[9] = system: SARS-CoV-2 VR PV10734 (strain Milano); experiment: microbe, parasite or virus in culture; format: cell-based; details: preliminary screening (50, 5, 0.5 μM), Vero TMPRSS; read-out: SARS‐CoV‐2/Vero TMPRSS EC50
[10] = system: IAV strain A/PR/8/34 (H1N1)
[11] = system: CCRF-CEM (leukemia cell line); experiment: NCI-60 five-dose assay; format: cell-based, human; details: five doses (10^−4–10^−8 M), read-out: Growth inhibition 50 (GI50)
[12] = system: HT29 (colon cancer cell line); experiment: NCI-60 five-dose assay; format: cell-based, human; details: five doses (10^−4–10^−8 M), read-out: Growth inhibition 50 (GI50)
[13] = system: HCT-116 (colon cancer cell line); experiment: NCI-60 five-dose assay; format: cell-based, human; details: five doses (10^−4–10^−8 M), read-out: Growth inhibition 50 (GI50)
[14] = system: RXF 393 (renal cancer cells); experiment: NCI-60 five-dose assay; format: cell-based, human; details: five-dose screen
[15] = system: EKVX (non-small cell lung cancer cell line); experiment: NCI-60 single-dose assay; format: cell-based, human; details: 10^−5 M, single dose
Outline: (§1)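 Read-out is cytotoxic activity from a single-concentration test; the panel spans nine human cancer types, including leukemia, lung, colon and renal.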

[16] = system: MCF-7 (breast cancer cell line); experiment: NCI-60 single-dose assay; format: cell-based, human; details: MCF-7, 10^−5 M
Outline: as §1

[17] = system: CAKI-1 (renal cancer cell line); experiment: NCI-60 single-dose assay; format: cell-based, human; details: CAKI-1; 10^−5 M, single dose
Outline: as §1

[18] = system: NCI-H23 (non-small cell lung cancer cell line); experiment: NCI-60 single-dose assay; format: cell-based, human; details: NCI-H23; 10^−5 M, single dose
Outline: as §1

[19] = system: HT29 (colon cancer cell line); experiment: NCI-60 single-dose assay; format: cell-based, human; details: HT29; 10^−5 M, single dose
Outline: as §1

[20] = system: SN12C (renal cancer cell line); experiment: NCI-60 single-dose assay; format: cell-based, human; details: 10^−5 M, single dose
Outline: as §1

[21] = system: KM12 (colon cancer cell line); experiment: NCI-60 single-dose assay; format: cell-based, human; details: KM12; 10^−5 M, single dose
Outline: as §1

[22] = system: SW-620 (colon cancer cell line); experiment: NCI-60 single-dose assay; format: cell-based, human; details: SW-620; 10^−5 M, single dose
Outline: as §1

[23] = system: RPMI-8226 (leukemia cell line); experiment: NCI-60 single-dose assay; format: cell-based, human; details: RPMI-8226; 10^−5 M, single dose
Outline: as §1

[24] = system: KM12 (colon cancer cell line); experiment: NCI-60 five-dose assay; format: cell-based, human; details: five doses (10^−4–10^−8 M), read-out: Growth inhibition 50 (GI50)
[25] = read-out: Growth inhibition 50 (GI50), five doses (10^−4–10^−8 M)
[26] = read-out: LC50 (molar concentration leading to 50% net cell death)

Substance: N-(3-(4-Benzylpiperazin-1-yl)propyl)-2-chloro-1,4,5,6-tetrahydrobenzo[6,7]cyclohepta[1,2-b]pyrrole-2-carboxamide [Compound 11]
- TGI (molar concentration giving total growth inhibition) [1]: 20.89 µM
- GI50 [1, 25]: 7.85 µM
- CC50 [1, 26]: 47.9 µM
- GI50 [2]: 3.65 µM
- TGI (molar concentration giving total growth inhibition) [3]: 5.13 µM
- GI50 [3, 25]: 2.16 µM
- CC50 [3, 26]: 15.8 µM
- TGI (molar concentration giving total growth inhibition) [4]: 3.39 µM
- GI50 [4, 25]: 1.74 µM
- CC50 [4, 26]: 6.61 µM
- TGI (molar concentration giving total growth inhibition) [5]: 3.48 µM
- GI50 [5, 25]: 1.9 µM
- CC50 [5, 26]: 6.46 µM
- GI50 [6]: 3.57 µM
- GI50 [7]: 2.69 µM
- GI50 [8]: 1.65 µM
- EC50 [9]: 17.7 µM
- IAV/MDCK SI ([10]; preliminary screening): 0.30
- EC50 ([10]; read-out: IAV/MDCK EC50, preliminary screening (50, 5, 0.5 μM), MDCK): 17.7 µM
- GI50 [11]: 3.89 µM
- GI50 [12]: 2.6 µM
- GI50 [13]: 3.37 µM
- GI50 [14]: 1.96 µM
- growth inhibition (GI%) and cytotoxicity (negative values) [15]: 70.83%
- growth inhibition (GI%) and cytotoxicity (negative values) [16]: 90.34%
- growth inhibition (GI%) and cytotoxicity (negative values) [17]: 91.53%
- growth inhibition (GI%) and cytotoxicity (negative values) [18]: – (GI% values < 60% or no cytotoxicity)
- growth inhibition (GI%) and cytotoxicity (negative values) [19]: 91.03%
- growth inhibition (GI%) and cytotoxicity (negative values) [20]: – (GI% values < 60% and no cytotoxicity)
- growth inhibition (GI%) and cytotoxicity (negative values) [21]: 78.00%
- growth inhibition (GI%) and cytotoxicity (negative values) [22]: 86.67%
- growth inhibition (GI%) and cytotoxicity (negative values) [23]: 92.04%
- GI50 [24]: 4.11 µM
